What was measured:
[1] = system: MDA-MB-435-GFP breast tumors; test: Orthotopically implanted human MDA-MB-435-GFP breast tumor mouse xenograft (Example 5); type: in vivo; conditions: 33 days of treatment; FIG. 1; dose not stated
Method: The experiment was conducted essentially as described above in Example 3, except that the tumors of GFP-transfected H-460 cells were replaced with MDA-MB-435-GFP breast tumors, with surgical orthotopic implantation directly into breast tissue of female CD-1 nude animals. The number of animals in each group was increased to 15. […] (See, e.g., Ross et al (2000) Nat Genet 24:227-235 and Ellison et al. Mol Pathol. (2002) 55:294-299.)
In the present MDA-MB-435-GFP breast cancer orthotopic study, administration of compound A was initiated 21 days after tumor fragment implantation to the mammary fat pad of female nude mice, at time at which the volume of primary tumors reached ˜150 mm^3. Taxotere, a positive chemotherapeutic agent control, was administered i.v. once weekly (15 mg/kg). After mean tumor volume in the vehicle control group exceeded 1 cm^3, animals were sacrificed (33 days of treatment) and primary tumors were excised from all animals and weighed.

H460 tumor cells = test: Subcutaneous H460 lung tumor xenograft, tumor growth delay study in combination with chemotherapeutics (Example 6); type: in vivo, mouse; conditions: Cmpd A 60 mg/kg p.o., paclitaxel 15 mg/kg i.v., carboplatin 120 mg/kg i.p.
Method: This study was used to determine the effect of combined treatments where compounds and methods of the invention were combined with conventional anti-tumor therapies. These experiments were performed essentially as described above in Example 3, except that 1×10^7 H460 tumor cells were implanted subcutaneously to the flanks of female Harlan nude animals. The number of animals in each group was 10. Treatments were initiated when tumors reached an average size of approximately 100 mm^3.
The study design was representative of tumor progression studies of the TGD (Tumor Growth Delay) type, using a protocol that required individual animals to be humanely euthanized after reaching a set endpoint of tumor volume greater than or equal to 2 cc.
These two chemotherapeutic agents are of two broad classes of conventional anti-tumor therapeutics: microtubule poisons (paclitaxcel); and DNA-directed agents, including the sub-classification of DNA alkylating agents (carboplatin). In tumor-bearing human patients, conventional anti-tumor therapy commonly use of one or both classes of chemotherapeutic agents.
The study was initiated with administration of conventional anti-tumor treatment or vehicle control, and followed one day after with administration of Compound A or vehicle control. […] (See Table 11 and Table 12 for compound and chemotherapeutic agent dosing schedule.)
Tumor progression was determined for each treatment group and is presented as median Time-to-Endpoint (TTE).

O=C(O)CNC(=O)c1nc(Cl)c2ccccc2c1O [Compound A, [(1-Chloro-4-hydroxy-isoquinoline-3-carbonyl)-amino]-acetic acid]
reduction of mean tumor volumes compared to vehicle control [1]: approximately 20%
% TGD, Percent Tumor Growth Delay (vs. Group control) (H460 tumor cells): 9%
T-C (Test-control, difference of medians) (H460 tumor cells): 1.5 days
% TGD, Percent Tumor Growth Delay (vs. Group control) (H460 tumor cells; listed as Cmpd. A): 9%
Median TTE (Time-to-Endpoint, tumor volume >= 2 cc) (H460 tumor cells; vehicle group 16.2): 17.7 days

Source: patent US8530404B2, “Compounds and methods for treatment of cancer” (FibroGen, Inc., priority 2005, dated 2013)
